Read-outs that look alike come from different tables or passages of the source.
What was measured:
[1] = system: NCI-H1975 (EGFR-L858R-T790M) cells; assay: Inhibitory activity on proliferation of NCI-H1975 (EGFR-L858R-T790M) cells (CTG, 72 h); format: cell-based; conditions: Homo sapiens
Outline: (§1)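 Cells plated at 1000/well (NCI-H1975, RPMI1640+10% FBS) or 3000/well (A431, DMEM+10% FBS), dosed next day with compounds (0.1% DMSO final) for 72 h at 37 °C, 5% CO2. Viability by CTG luminescence, normalised to vehicle control; IC50 from nonlinear-regression dose-survival curves.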

[2] = system: A431 (EGFR-WT) cells; assay: Inhibitory activity on proliferation of A431 (EGFR-WT) cells (CTG, 72 h); format: cell-based; conditions: Homo sapiens, A-431
Outline: as §1

[3] = Pharmacokinetic test in mice; format: in vivo; conditions: male, ICR, mouse, po, administration i.g. (10 mg/kg), plasma
Description: Test objective: In this experiment, a single dose of test compounds was administered to ICR mice intravenously and intragastrically, the concentrations of the test compounds in plasma of mice were measured, and the pharmacokinetic characteristics and bioavailability of the test compounds in mice were evaluated.
Experimental animals: male ICR mice, 20-25 g, purchased from BEIJING HFK BIOSCIENCE CO., LTD. with the laboratory animal production license number of SCXK (JING) 2019-0008; or purchased from CHENGDU DDOSSY EXPERIMENTAL ANIMALS CO., LTD. (SCXK (CHUAN) 2020-030); or purchased from HUNAN SJA LABORATORY ANIMAL CO., LTD. (SCXK (XIANG) 2019-0004).
Experimental method: on the day of the experiment, ICR mice were randomly grouped according to their body weights. The mice were fasted with water available for 12 to 14 hours one day before the administration, and were fed 4 hours after the administration.
Sampling: before and after the administration, blood was taken from the orbits of the mice under isoflurane anesthesia, and placed in an EDTAK2 centrifuge tube. Centrifugation was carried out at 5000 rpm at 4° C. for 10 min, and the plasma was collected.
Time points for plasma collection in G1&G2 groups: 0, 5 min, 15 min, 30 min, 1h, 2h, 4h, 6h, 8h, and 24 h; • time points for plasma collection in G3 group: 0, 5 min, 15 min, 30 min, 1 h, 2 h, 4 h, 6h, 8h, and 24 h; • before analysis and detection, all samples were stored at −80° C. The samples were analyzed quantitatively by LC-MS/MS.

[4] = read-out: IC50 (value in brackets)

| SMILES | IC50 ([1]; read-out: IC50 (class symbol)) [nM] | IC50 [1, 4] [nM] | IC50 [2] [nM] | AUC(0-t) [3] [ng·h/mL] | AUC [3] [ng·h/mL] | half-life [3] [h] |
| --- | --- | --- | --- | --- | --- | --- |
| COc1cc(N2CCC(N3CCN(CC4CCN(c5ccc6c(c5)C(=O)N(C5CCC(=O)NC5=O)C6=O)CC4)CC3)CC2)c(-c2cnn(C)c2)cc1Nc1ncc(Br)c(Nc2ccc(C)c(C)c2P(C)(C)=O)n1 (stereo not shown) [Compound 73, 5-(4-((4-(1-(4-((5-bromo-4-((2-(dimethylphosphoryl)-3,4-dimethylphenyl)amino)pyrimidin-2-yl)amino)-5-methoxy-2-(1-methyl-1H-pyrazol-4-yl)phenyl)piperidin-4-yl)piperazin-1-yl)methyl)piperidin-1-yl)-2-(2,6-dioxopiperidin-3-yl)isoindoline-1,3-dione] | < 100 | 26 | ≥ 10000 | 13700 | – | – |
| COc1cc(N2CCC(N3CCN(CC4CCN(c5ccc6c(c5)C(=O)N(C5CCC(=O)NC5=O)C6=O)CC4)CC3)CC2)c(-c2cnn(C)c2)cc1Nc1ncc(Br)c(Nc2ccc3ccccc3c2P(C)(C)=O)n1 (stereo not shown) [Compound 71, 5-(4-((4-(1-(4-((5-bromo-4-((1-(dimethylphosphoryl)naphthalen-2-yl)amino)pyrimidin-2-yl)amino)-5-methoxy-2-(1-methyl-1H-pyrazol-4-yl)phenyl)piperidin-4-yl)piperazin-1-yl)methyl)piperidin-1-yl)-2-(2,6-dioxopiperidin-3-yl)isoindoline-1,3-dione] | < 100 | 29 | ≥ 10000 | 24700 | – | – |
| COc1cc(N2CCC(N3CCN(CC4CCN(c5cc6c(cc5F)C(=O)N(C5CCC(=O)NC5=O)C6=O)CC4)CC3)CC2)c(-c2cnn(C)c2)cc1Nc1ncc(Br)c(Nc2ccc(-c3ccccc3)cc2P(C)(C)=O)n1 (stereo not shown) [Compound 87, 5-(4-((4-(1-(4-((5-bromo-4-((3-(dimethylphosphoryl)-[1,1′-biphenyl]-4-yl)amino)pyrimidin-2-yl)amino)-5-methoxy-2-(1-methyl-1H-pyrazol-4-yl)phenyl)piperidin-4-yl)piperazin-1-yl)methyl)piperidin-1-yl)-2-(2,6-dioxopiperidin-3-yl)-6-fluoroisoindoline-1,3-dione] | < 100 | 45 | ≥ 10000 | 2340 | – | – |
| COc1cc(N2CCC(N3CCN(C4CC5(CCN(c6ccc7c(c6)C(=O)N(C6CCC(=O)NC6=O)C7=O)CC5)C4)CC3)CC2)c(-c2cnn(C)c2)cc1Nc1ncc(Cl)c(Nc2ccc(-c3ccccc3)cc2P(C)(C)=O)n1 (stereo not shown) [Compound 91] | < 100 | 78 | ≥ 10000 | 7580 | – | – |
| COc1cc(N2CCC(N3CCN(CC4CCN(c5ccc6c(c5)C(=O)N(C5CCC(=O)NC5=O)C6=O)C4)CC3)CC2)c(-c2cnn(C)c2)cc1Nc1ncc(Br)c(Nc2ccc(-c3ccccc3)cc2P(C)(C)=O)n1 (stereo not shown) [Compound 76, 5-(3-((4-(1-(4-((5-bromo-4-((3-(dimethylphosphoryl)-[1,1′-biphenyl]-4-yl)amino)pyrimidin-2-yl)amino)-5-methoxy-2-(1-methyl-1H-pyrazol-4-yl)phenyl)piperidin-4-yl)piperazin-1-yl)methyl)pyrrolidin-1-yl)-2-(2,6-dioxopiperidin-3-yl)isoindoline-1,3-dione] | < 100 | 31 | ≥ 10000 | 19600 | – | – |
| COc1cc(N2CCC(N3CCN(CC4CCN(c5ccc(C(=O)NC6CCC(=O)NC6=O)nc5)CC4)CC3)CC2)c(-c2cnn(C)c2)cc1Nc1ncc(Br)c(Nc2ccc(-c3ccccc3)cc2P(C)(C)=O)n1 (stereo not shown) [Compound 56, 5-(4-((4-(1-(4-((5-bromo-4-((3-(dimethylphosphoryl)-[1,1′-biphenyl]-4-yl)amino)pyrimidin-2-yl)amino)-5-methoxy-2-(1-methyl-1H-pyrazol-4-yl)phenyl)piperidin-4-yl)piperazin-1-yl)methyl)piperidin-1-yl)-N-(2,6-dioxopiperidin-3-yl)picolinamide] | < 100 | 61 | – | 28600 | – | – |

More lines, now with the values ahead:

| IC50 ([1]; read-out: IC50 (class symbol)) [nM] | IC50 [1, 4] [nM] | IC50 [2] [nM] | AUC(0-t) [3] [ng·h/mL] | AUC [3] [ng·h/mL] | half-life [3] [h] | SMILES |
| --- | --- | --- | --- | --- | --- | --- |
| < 100 | 32 | ≥ 10000 | 7790 | – | – | COc1cc(N2CCC(CN3CCC4(CC3)CCN(c3ccc5c(c3)C(=O)N(C3CCC(=O)NC3=O)C5=O)CC4)CC2)c(-c2cnn(C)c2)cc1Nc1ncc(Cl)c(Nc2ccc(-c3ccccc3)cc2P(C)(C)=O)n1 (stereo not shown) [Compound 48, 5-(9-((1-(4-((5-chloro-4-((3-(dimethylphosphoryl)-[1,1′-biphenyl]-4-yl)amino)pyrimidin-2-yl)amino)-5-methoxy-2-(1-methyl-1H-pyrazol-4-yl)phenyl)piperidin-4-yl)methyl)-3,9-diazaspiro[5.5]undecan-3-yl)-2-(2,6-dioxopiperidin-3-yl)isoindoline-1,3-dione] |
| < 100 | 72 | ≥ 10000 | 16300 | – | – | COc1cc(N2CCC(N3CCN(CC4CCN(c5ccc6c(c5)C(=O)N(C5CCC(=O)NC5=O)C6=O)CC4)CC3)CC2)c(-c2cnn(C)c2)cc1Nc1ncc(Cl)c(Nc2ccc(-c3ccccc3)cc2P(C)(C)=O)n1 (stereo not shown) [Compound 58, 5-(4-((4-(1-(4-((5-chloro-4-((3-(dimethylphosphoryl)-[1,1′-biphenyl]-4-yl)amino)pyrimidin-2-yl)amino)-5-methoxy-2-(1-methyl-1H-pyrazol-4-yl)phenyl)piperidin-4-yl)piperazin-1-yl)methyl)piperidin-1-yl)-2-(2,6-dioxopiperidin-3-yl)isoindoline-1,3-dione] |
| < 100 | 49 | ≥ 10000 | 20800 | – | – | COc1cc(N2CCC(CN3CCC4(CC3)CCN(c3ccc5c(c3)C(=O)N(C3CCC(=O)NC3=O)C5=O)CC4)CC2)c(-c2cnn(C)c2)cc1Nc1ncc(Br)c(Nc2ccc(-c3ccccc3F)cc2P(C)(C)=O)n1 (stereo not shown) [Compound 95, 5-(9-((1-(4-((5-bromo-4-((3-(dimethylphosphoryl)-2′-fluoro-[1,1′-biphenyl]-4-yl)amino)pyrimidin-2-yl)amino)-5-methoxy-2-(1-methyl-1H-pyrazol-4-yl)phenyl)piperidin-4-yl)methyl)-3,9-diazaspiro[5.5]undecan-3-yl)-2-(2,6-dioxopiperidin-3-yl)isoindoline-1,3-dione] |
| < 100 | 84 | ≥ 10000 | 8430 | – | – | COc1cc(N2CCC(CN3CCC4(CCCN(c5ccc6c(c5)C(=O)N(C5CCC(=O)NC5=O)C6=O)C4)CC3)CC2)c(-c2cnn(C)c2)cc1Nc1ncc(Cl)c(Nc2ccc(-c3ccccc3)cc2P(C)(C)=O)n1 (stereo not shown) [Compound 89, 5-(9-((1-(4-((5-chloro-4-((3-(dimethylphosphoryl)-[1,1′-biphenyl]-4-yl)amino)pyrimidin-2-yl)amino)-5-methoxy-2-(1-methyl-1H-pyrazol-4-yl)phenyl)piperidin-4-yl)methyl)-2,9-diazaspiro[5.5]undecan-2-yl)-2-(2,6-dioxopiperidin-3-yl)isoindoline-1,3-dione] |
| < 100 | 76 | ≥ 10000 | – | 93100 | 6.68 | COc1cc(N2CCC3(CCN(c4ccc5c(c4)C(=O)N(C4CCC(=O)NC4=O)C5=O)CC3)CC2)c(-c2cnn(C)c2)cc1Nc1ncc(Br)c(Nc2ccc(F)cc2P(C)(C)=O)n1 (stereo not shown) [Compound 163, 5-(9-(4-((5-bromo-4-((2-(dimethylphosphoryl)-4-fluorophenyl)amino)pyrimidin-2-yl)amino)-5-methoxy-2-(1-methyl-1H-pyrazol-4-yl)phenyl)-3,9-diazaspiro[5.5]undecan-3-yl)-2-(2,6-dioxopiperidin-3-yl)isoindoline-1,3-dione] |
| < 100 | 30 | ≥ 10000 | 19900 | – | – | COc1cc(N2CCC(N3CCN(CC4CCN(c5ccc6c(c5)C(=O)N(C5CCC(=O)NC5=O)C6=O)CC4)CC3)CC2)c(-c2cnn(C)c2)cc1Nc1ncc(Br)c(Nc2ccc(C3CC3)cc2P(C)(C)=O)n1 (stereo not shown) [Compound 55, 5-(4-((4-(1-(4-((5-bromo-4-((4-cyclopropyl-2-(dimethylphosphoryl)phenyl)amino)pyrimidin-2-yl)amino)-5-methoxy-2-(1-methyl-1H-pyrazol-4-yl)phenyl)piperidin-4-yl)piperazin-1-yl)methyl)piperidin-1-yl)-2-(2,6-dioxopiperidin-3-yl)isoindoline-1,3-dione] |
| < 100 | 33 | – | – | 104000 | 5.12 | COc1cc(N2CCC(CN3CCN(c4ccc5c(c4)C(=O)N(C4CCC(=O)NC4=O)C5=O)CC3)CC2)c(-c2cnn(C)c2)cc1Nc1ncc(Cl)c(Nc2ccc(F)cc2P(C)(C)=O)n1 (stereo not shown) [Compound 142, 5-(4-((1-(4-((5-chloro-4-((2-(dimethylphosphoryl)-4-fluorophenyl)amino)pyrimidin-2-yl)amino)-5-methoxy-2-(1-methyl-1H-pyrazol-4-yl)phenyl)piperidin-4-yl)methyl)piperazin-1-yl)-2-(2,6-dioxopiperidin-3-yl)isoindoline-1,3-dione] |
